Reference: article PMC6099623, “Novel Thiazolidinone/Thiazolo[3,2-a]Benzimidazolone-Isatin Conjugates as Apoptotic Anti-proliferative Agents Towards Breast Cancer: One-Pot Synthesis and In Vitro Biological Evaluation” (Molecules : A Journal of Synthetic Chemistry and Natural …, 2018)

Tests used:
[1] = system: MDA-MB-231 breast cancer cell line; assay: Crystal Violet antiproliferative assay, MDA-MB-231; type: cell-based; conditions: 48 h of incubation, mean ± S.D. of three separate experiments
Description: (§1) The in vitro antiproliferative activity of the newly synthesized conjugates 4a–n and 7a–d was evaluated against breast cancer MDA-MB-231 and MCF-7 cell lines, following the Crystal Violet (CV) cell cytotoxicity assay. Doxorubicin was included in this assay as a positive control, and Sunitinib was used as a reference drug.
(§2) Breast cancer cell lines MDA-MB-231 and MCF-7 cells were obtained from VACSERA Tissue Culture Unit. The cells were propagated in DMEM supplemented with 10% heat-inactivated fetal bovine serum, 1% L-glutamine (2.5 mM), HEPES (4-(2-hydroxyethyl)-1-piperazineethanesulfonic acid) buffer (10 mM) and 50 µg/mL gentamycin. All cells were maintained at 37 °C in a humidified atmosphere with 5% CO2 and were sub-cultured two times a week. Cytotoxicity was determined following the Crystal Violet (CV) cell cytotoxicity assay.
(§3) Test samples were dissolved in DMSO and kept at a stock concentration of 100 mM. Exponentially growing cells were collected using 0.25% Trypsin-EDTA and seeding was done at a density of 3000 cells/well in 96-well plates. After 24 h, the monolayer cultured cells were washed with sterile phosphate buffered saline (0.01 M pH 7.2) and simultaneously the cells were treated with […] from 10 different dilutions of the test compounds as well as Doxorubicin was […] Control wells were exposed to the same concentration of vehicle, DMSO (1%) used in the highest concentration of the test samples. Cell viability was >99% compared to untreated cells. The number of the surviving cells was determined by staining the cells with crystal violet followed by cell lysing using 33% glacial acetic acid. The absorbance was measured at 490 nm using ELISA reader (Thermo Fisher Scientific, Waltham, MA, USA) after gentle shaking. The absorbance values from untreated cells were considered as 100% proliferation.
(§4) The number of viable cells was determined using ELISA reader as previously mentioned and the percentage of viability was calculated as […] where ODt is the mean optical density of wells treated with the test sample and ODc is the mean optical density of untreated cells. The 50% inhibitory concentration (IC50) was estimated from graphic plots of the dose response curve for each conc. using GraphPad Prism software, Version 5 (San Diego, CA, USA). The data presented are the mean of at least three separate experiments.

[2] = system: MCF-7 breast cancer cell line; assay: Crystal Violet antiproliferative assay, MCF-7; type: cell-based; conditions: Homo sapiens, MCF7, 48 h, Crystal Violet assay; 48 h of incubation; mean ± S.D. of three separate experiments
Description: as §1, §2, §3, §4

[3] = system: lung fibroblast cell line (WI-38); assay: Crystal violet cytotoxicity towards nontumorigenic WI-38; type: cell-based; conditions: Homo sapiens, nontumorigenic cells, mean ± S.D. of three separate experiments
Description: (§5) The cytotoxic activity of the active conjugates towards MDA-MB-231 cells (4c–e, 4g, 4l–n and 7a–d) was examined against nontumorigenic human lung fibroblast cell line (WI-38) and human breast epithelial cell line (MCF-10A) to investigate the potential safety of the newly prepared conjugates towards the normal cells. […] The results were expressed as IC50 values, and selectivity index was calculated (Table 2).
(§6) The cytotoxic activity of the active conjugates towards nontumorigenic human lung fibroblast cell line (WI-38) and human breast epithelial cell line (MCF-10A) was determined using Crystal violet (CV) cell cytotoxicity assay according to the previously published procedures.

[4] = system: breast epithelial cell line (MCF-10A); assay: Crystal violet cytotoxicity towards nontumorigenic MCF-10A; type: cell-based, human; conditions: for IC50: Homo sapiens, MCF-10A, nontumorigenic cells, mean ± S.D. of three separate experiments; for Selectivity Index (MCF-10A/MDA-MB-231): ratio of IC50 MCF-10A to IC50 MDA-MB-231
Description: as §5, §6

SMILES	IC50 ([1]; Homo sapiens, MDA-MB-231, 48 h)	IC50 [2]	melting point	IC50 [1]	IC50 [3]	IC50 [4]	Selectivity Index (MCF-10A/MDA-MB-231) [4]
Cc1ccc(N=C2SC(=C3C(=O)Nc4ccc(F)cc43)C(=O)N2c2ccc(C)cc2)cc1 [Compound 4i, 5-(5-Fluoro-2-oxoindolin-3-ylidene)-3-(p-tolyl)-2-(p-tolylimino)thiazolidin-4-one]	152 ± 11.5 µM	105 ± 7.5 µM	> 300 °C	–	–	–	–
Cc1ccc(N=C2SC(=C3C(=O)Nc4ccc(Cl)cc43)C(=O)N2c2ccc(C)cc2)cc1 [Compound 4j, 5-(5-Chloro-2-oxoindolin-3-ylidene)-3-(p-tolyl)-2-(p-tolylimino)thiazolidin-4-one]	50.8 ± 3.5 µM	> 200 µM	> 300 °C	–	–	–	–
COc1ccc2c(c1)C(=C1SC(=Nc3ccc(C)cc3)N(c3ccc(C)cc3)C1=O)C(=O)N2 [Compound 4l, 5-(5-Methoxy-2-oxoindolin-3-ylidene)-3-(p-tolyl)-2-(p-tolylimino)thiazolidin-4-one]	47.1 ± 4.1 µM	53.5 ± 3.6 µM	> 300 °C	47.2 ± 4.1 µM	176 ± 11.3 µM	157 ± 6.8 µM	3.3
Cc1ccc(N=C2SC(=C3C(=O)Nc4c(C)cc(C)cc43)C(=O)N2c2ccc(C)cc2)cc1 [Compound 4n, 5-(5,7-Dimethyl-2-oxoindolin-3-ylidene)-3-(p-tolyl)-2-(p-tolylimino)thiazolidin-4-one]	36.3 ± 2.9 µM	23.7 ± 1.9 µM	> 300 °C	–	218 ± 13.5 µM	154 ± 5.2 µM	4.2
O=C1Nc2ccc(Cl)cc2C1=c1sc2nc3ccccc3n2c1=O [Compound 7a, 2-(5-Chloro-2-oxoindolin-3-ylidene)benzo[4,5]imidazo[2,1-b]thiazol-3(2H)-one]	47.2 ± 3.8 µM	127 ± 9.9 µM	> 300 °C	–	353 ± 17.1 µM	234 ± 9.6 µM	5.0
Cc1ccc2c(c1)C(=c1sc3nc4ccccc4n3c1=O)C(=O)N2 [Compound 7c, 2-(5-Methyl-2-oxoindolin-3-ylidene)benzo[4,5]imidazo[2,1-b]thiazol-3(2H)-one]	40.3 ± 2.5 µM	48.2 ± 2.7 µM	> 300 °C	–	192 ± 10.8 µM	242 ± 11.5 µM	6.0
Cc1cc(C)c2c(c1)C(=c1sc3nc4ccccc4n3c1=O)C(=O)N2 [Compound 7d, 2-(5,7-Dimethyl-2-oxoindolin-3-ylidene)benzo[4,5]imidazo[2,1-b]thiazol-3(2H)-one]	23.5 ± 1 µM	27.6 ± 2.4 µM	> 300 °C	–	234 ± 15.4 µM	250 ± 9.8 µM	10.7
COc1cccc2c1C(=O)c1c(O)c3c(c(O)c1C2=O)C[C@@](O)(C(=O)CO)C[C@@H]3O[C@H]1C[C@H](N)[C@H](O)[C@H](C)O1 [Dox., Doxorubicin, reference compound]	4.7 ± 0.4 µM	3.8 ± 0.4 µM	–	–	–	–	–
CCN(CC)CCNC(=O)c1c(C)[nH]c(/C=C2\C(=O)Nc3ccc(F)cc32)c1C [Sunitinib, reference compound]	5.5 ± 0.5 µM	3.4 ± 0.3 µM	–	–	–	–	–

Now from value to molecule, other results behind:

IC50 ([1]; Homo sapiens, MDA-MB-231, 48 h)	IC50 [2]	melting point	IC50 [1]	SMILES	IC50 [3]	IC50 [4]	Selectivity Index (MCF-10A/MDA-MB-231) [4]
> 200 µM	> 200 µM	–	–	O=C1Nc2ccccc2C1=C1SC(=Nc2ccccc2)N(c2ccccc2)C1=O [Compound 4a, 5-(2-Oxoindolin-3-ylidene)-3-phenyl-2-(phenylimino)thiazolidin-4-one]	–	–	–
108 ± 8.2 µM	58.5 ± 3.2 µM	> 300 °C	–	O=C1Nc2ccc(F)cc2C1=C1SC(=Nc2ccccc2)N(c2ccccc2)C1=O [Compound 4b, 5-(5-Fluoro-2-oxoindolin-3-ylidene)-3-phenyl-2-(phenylimino)thiazolidin-4-one]	–	–	–
24.1 ± 2.1 µM	29.2 ± 2.5 µM	–	–	O=C1Nc2ccc(Cl)cc2C1=C1SC(=Nc2ccccc2)N(c2ccccc2)C1=O [Compound 4c, 5-(5-Chloro-2-oxoindolin-3-ylidene)-3-phenyl-2-(phenylimino)thiazolidin-4-one]	87.2 ± 5.2 µM	113 ± 5.9 µM	4.7
15.7 ± 0.9 µM	17.1 ± 1.1 µM	–	–	O=C1Nc2ccc(Br)cc2C1=C1SC(=Nc2ccccc2)N(c2ccccc2)C1=O [Compound 4d, 5-(5-Bromo-2-oxoindolin-3-ylidene)-3-phenyl-2-(phenylimino)thiazolidin-4-one]	65.5 ± 4.2 µM	80.7 ± 3.4 µM	5.1
42.6 ± 3.4 µM	52.9 ± 5 µM	–	–	COc1ccc2c(c1)C(=C1SC(=Nc3ccccc3)N(c3ccccc3)C1=O)C(=O)N2 [Compound 4e, 5-(5-Methoxy-2-oxoindolin-3-ylidene)-3-phenyl-2-(phenylimino)thiazolidin-4-one]	193 ± 10.6 µM	89.6 ± 5.1 µM	2.1
60.9 ± 4.2 µM	22.8 ± 2 µM	–	–	Cc1ccc2c(c1)C(=C1SC(=Nc3ccccc3)N(c3ccccc3)C1=O)C(=O)N2 [Compound 4f, 5-(5-Methyl-2-oxoindolin-3-ylidene)-3-phenyl-2-(phenylimino)thiazolidin-4-one]	–	–	–
43.6 ± 3.1 µM	–	> 300 °C	–	Cc1cc(C)c2c(c1)C(=C1SC(=Nc3ccccc3)N(c3ccccc3)C1=O)C(=O)N2 [Compound 4g, 5-(5,7-Dimethyl-2-oxoindolin-3-ylidene)-3-phenyl-2-(phenylimino)thiazolidin-4-one]	120 ± 7.8 µM	142 ± 7.9 µM	3.25
51.7 ± 2.1 µM	56 ± 3.7 µM	> 300 °C	–	Cc1ccc(N=C2SC(=C3C(=O)Nc4ccccc43)C(=O)N2c2ccc(C)cc2)cc1 [Compound 4h, 5-(2-Oxoindolin-3-ylidene)-3-(p-tolyl)-2-(p-tolylimino)thiazolidin-4-one]	–	–	–
> 200 µM	> 200 µM	> 300 °C	–	Cc1ccc(N=C2SC(=C3C(=O)Nc4ccc(Br)cc43)C(=O)N2c2ccc(C)cc2)cc1 [Compound 4k, 5-(5-Bromo-2-oxoindolin-3-ylidene)-3-(p-tolyl)-2-(p-tolylimino)thiazolidin-4-one]	–	–	–
